Measured values reported in US20070112018A1, “Treatment of peripheral arterial occlusive disease” (priority 2005, published 2007).
Values after ≈ are worked out from the molar mass of the structure shown. Like-named read-outs stand apart in the source and are kept apart here.

Legend:
[1] = Tissue distribution in rats after a single oral dose (Study 6510-109); format: in vivo, rat; settings: for Kp: oral, 3 mg/kg, species not given
Method: Distribution to the majority of tissues was higher than observed plasma levels.
(§1) In rats and dogs, the Vdβ/F following oral administration was 40-80 L/kg. […] The highest mean Cmax observed was in the wall of the GI tract and occurred approximately 1 hour post-dose. […] A large tissue compartment of rifalazil is considered important for efficacy against Chlamydia given the intracellular nature of Chlamydia infection.

[2] = human, in vivo
Method: In another study, three dose levels of rifalazil were administered for the treatment of non-gonococcal urethritis in 170 male patients. Doses used were in this study were single-doses of 2.5, 12.5 mg and 25 mg. Males were between 18-45 years of age with signs or symptoms of urethritis, including urethral discharge.

[3] = Non-clinical oral pharmacokinetics in the rat; format: in vivo; settings: for bioavailability: rat, plasma, po
Method: as §1

[4] = human, in vivo; remark: listed apart in the source
physchem = format: physicochemical
Method: Rifalazil is a highly lipophilic molecule having limited solubility in water at physiological pH (approximately 200 ng/mL). Evidence of the highly lipophilic behavior of the molecule is illustrated in the partition coefficient (n-octanol:water) of between 70, 569 and over 900,000 in different experiments (Log P range; 4.9-5.9).

[5] = Phase 1 Study ABI-1648-006, single oral dose pharmacokinetics; settings: for half-life / Tmax / CL/F / AUC(0-inf) / Cmax: human, plasma; for AUC0−∞/Dose Mean / Cmax/Dose Mean: normalized to mg/kg
Method: Study ABI-1648-006 was conducted to evaluate the PK of single and multiple oral doses of 2.5, 5, 12.5, and 25 mg administered to healthy male and female volunteers.

C. pneumoniae = test: Rabbit model of atherosclerosis accelerated by C. pneumoniae infection, cholesterol diet; settings: C. pneumoniae-infected rabbits; rifalazil 5 mg/kg or azithromycin 30 mg/kg PO daily 1 week then twice weekly 6 weeks; 19 weeks after beginning treatment
Method: Thirty received three separate C. pneumoniae inoculations performed at 3-week intervals. Similarly, 15 control rabbits were intranasally inoculated with 1 mL of normal saline under the same conditions.
Nineteen weeks after beginning antibiotic treatment, the rabbits were euthanized. After euthanasia, hearts were examined histologically and by immunofluorescence. Animal serum samples were also examined for seropositivity to the infecting organism.

[6] = Placebo-controlled study of 30 mg and 100 mg in healthy volunteers, adverse events; format: in vivo, human
Method: In a placebo-controlled study of 30 mg and 100 mg in […], […] received the 30 mg dose of rifalazil. Sixty-two percent of patients (5/8) reported AEs while 33% of placebo subjects (3/9) reported AEs. The only AE of note reported in this rifalazil dose group was headache (38%, […]) compared to the placebo-treated group (11%, 1/9 subjects). […] However, this baseline value was not considered clinically significant nor were subsequent nadir values obtained on Days 3 and 7 (3.8×10^3 cells/mm^3).

[7] = Non-clinical oral pharmacokinetics in the beagle dog; format: in vivo
Method: as §1

[8] = females, single oral dose 2.5 mg
[9] = females, single oral dose 12.5 mg
[10] = females, single oral dose 25 mg
[11] = males, single oral dose 12.5 mg

CO[C@H]1/C=C/O[C@@]2(C)Oc3c(C)c(O)c4c(=O)c(c5oc6cc(N7CCN(CC(C)C)CC7)cc(O)c6nc-5c4c3C2=O)NC(=O)/C(C)=C\C=C\[C@H](C)[C@H](O)[C@@H](C)[C@@H](O)[C@@H](C)[C@H](OC(C)=O)[C@@H]1C [rifalazil, 3′-hydroxy-5′-(4-isobutyl-1-piperazinyl) benzoxazinorifamycin]
Kp ([1]; rat, liver, read-out: tissue to plasma ratio (AUC), liver): 33.7
Kp ([1]; rat, testes, read-out: tissue to plasma ratio (AUC), testes): 4.9
concentration at 1 h ([1]; rat, wall of the GI tract, rats, single oral 3 mg/kg, at 1 hour): 5400 ng/g
tissue concentration, spleen ([1]; rats, single oral 3 mg/kg, at 8-12 hours post dose): 5.1-9.3 μg/gm
deaths, serious AEs, or discontinuations due to AEs [2]: No deaths, serious AEs, or discontinuations due to AEs
incidence of AEs considered possibly related to study drug ([2]; male): 23%
incidence of clinically significant laboratory abnormalities ([2]; male): 21%
bioavailability ([3]; female rats, 3 mg/kg): 28.9%
bioavailability ([3]; female rats, 100 mg/kg): 6.1%
bioavailability ([3]; male rats, 3 mg/kg): 43.5%
bioavailability ([3]; male rats, 100 mg/kg): 11.7%
Vdβ/F ([3]; rats, oral administration): 40 to 80 L/kg
overall extent of metabolism [4]: less than 3 % of the administered dose
partition coefficient (n-octanol:water) (physchem): 70, 569-900,000
logP (physchem; n-octanol:water, different experiments, read-out: Log P range): 4.9 to 5.9
solubility (physchem; pH 7.4, aqueous buffer, physiological pH, read-out: solubility in water): ~0.2 µg/mL (≈ 0.213 µM)
Time to maximum concentration ([5]; after single dose administration (study conclusions)): 4 to 6 h
half-life ([5]; both, oral, elimination t1/2, study conclusions): 4.17 to 6.25 days
Tmax ([5]; both, po): 4.8 to 6.2 h
half-life ([5]; both, po, mean distribution t1/2, range across groups, single oral doses 2.5-25 mg, males and females): 0.188 to 0.358 days
half-life ([5]; both, po, mean elimination t1/2, range across groups, single oral doses 2.5-25 mg, males and females): 4.21 to 6.25 days
CL/F ([5]; female, po, 2.5 mg): 4.17 mL/min/kg
Tmax ([5]; female, po, 2.5 mg): 4.8 h
AUC(0-inf) ([5]; female, po, 2.5 mg, AUC0−∞ GMean (geometric mean), females, single oral dose 2.5 mg): 168 ng·h/mL
AUC(0-inf) ([5]; female, po, 2.5 mg, AUC0−∞ Mean, females, single oral dose 2.5 mg): 174 ng·h/mL
Cmax ([5]; female, po, 2.5 mg, Cmax GMean (geometric mean), females, single oral dose 2.5 mg): 7.1 ng/mL
Cmax ([5]; female, po, 2.5 mg, Cmax Mean, females, single oral dose 2.5 mg): 7.5 ng/mL
half-life ([5]; female, po, 2.5 mg, Distribution t1/2 Mean, females, single oral dose 2.5 mg): 0.208 days
half-life ([5]; female, po, 2.5 mg, Elimination t1/2 Mean, females, single oral dose 2.5 mg): 5.55 days
CL/F ([5]; female, po, 5 mg): 3.83 mL/min/kg
Tmax ([5]; female, po, 5 mg): 5 h
AUC(0-inf) ([5]; female, po, 5 mg, AUC0−∞ GMean (geometric mean), females, single oral dose 5 mg): 373 ng·h/mL
AUC(0-inf) ([5]; female, po, 5 mg, AUC0−∞ Mean, females, single oral dose 5 mg): 397 ng·h/mL
Cmax ([5]; female, po, 5 mg, Cmax GMean (geometric mean), females, single oral dose 5 mg): 13.5 ng/mL
Cmax ([5]; female, po, 5 mg, Cmax Mean, females, single oral dose 5 mg): 14.6 ng/mL
half-life ([5]; female, po, 5 mg, Distribution t1/2 Mean, females, single oral dose 5 mg): 0.188 days
half-life ([5]; female, po, 5 mg, Elimination t1/2 Mean, females, single oral dose 5 mg): 5.7 days
CL/F ([5]; female, po, 12.5 mg): 6.5 mL/min/kg
Tmax ([5]; female, po, 12.5 mg): 6.2 h
AUC(0-inf) ([5]; female, po, 12.5 mg, AUC0−∞ GMean (geometric mean), females, single oral dose 12.5 mg): 526 ng·h/mL
AUC(0-inf) ([5]; female, po, 12.5 mg, AUC0−∞ Mean, females, single oral dose 12.5 mg): 540 ng·h/mL
Cmax ([5]; female, po, 12.5 mg, Cmax GMean (geometric mean), females, single oral dose 12.5 mg): 19.9 ng/mL
Cmax ([5]; female, po, 12.5 mg, Cmax Mean, females, single oral dose 12.5 mg): 20.8 ng/mL
half-life ([5]; female, po, 12.5 mg, Distribution t1/2 Mean, females, single oral dose 12.5 mg): 0.254 days
half-life ([5]; female, po, 12.5 mg, Elimination t1/2 Mean, females, single oral dose 12.5 mg): 4.6 days
CL/F ([5]; female, po, 25 mg): 7.17 mL/min/kg
Tmax ([5]; female, po, 25 mg): 4.8 h
AUC(0-inf) ([5]; female, po, 25 mg, AUC0−∞ GMean (geometric mean), females, single oral dose 25 mg): 1020 ng·h/mL
AUC(0-inf) ([5]; female, po, 25 mg, AUC0−∞ Mean, females, single oral dose 25 mg): 1100 ng·h/mL
Cmax ([5]; female, po, 25 mg, Cmax GMean (geometric mean), females, single oral dose 25 mg): 33.3 ng/mL
Cmax ([5]; female, po, 25 mg, Cmax Mean, females, single oral dose 25 mg): 36.5 ng/mL
half-life ([5]; female, po, 25 mg, Distribution t1/2 Mean, females, single oral dose 25 mg): 0.325 days
half-life ([5]; female, po, 25 mg, Elimination t1/2 Mean, females, single oral dose 25 mg): 6.27 days
Vdβ/F Mean [5, 8]: 45.0 L/kg
AUC0−∞/Dose Mean [5, 8]: 4274.6
Cmax/Dose Mean [5, 8]: 183.1
Vdβ/F Mean ([5]; females, single oral dose 5 mg): 41.6 L/kg
AUC0−∞/Dose Mean ([5]; females, single oral dose 5 mg): 5124.5
Cmax/Dose Mean ([5]; females, single oral dose 5 mg): 185.1
Vdβ/F Mean [5, 9]: 61.6 L/kg
AUC0−∞/Dose Mean [5, 9]: 2759.4
Cmax/Dose Mean [5, 9]: 106.9
Vdβ/F Mean [5, 10]: 82.8 L/kg
AUC0−∞/Dose Mean [5, 10]: 2796.3
Cmax/Dose Mean [5, 10]: 91.3
CL/F ([5]; male, po, 2.5 mg): 3.5 mL/min/kg
Tmax ([5]; male, po, 2.5 mg): 5.3 h
AUC(0-inf) ([5]; male, po, 2.5 mg, AUC0−∞ GMean (geometric mean), males, single oral dose 2.5 mg): 172 ng·h/mL
AUC(0-inf) ([5]; male, po, 2.5 mg, AUC0−∞ Mean, males, single oral dose 2.5 mg): 188 ng·h/mL
Cmax ([5]; male, po, 2.5 mg, Cmax GMean (geometric mean), males, single oral dose 2.5 mg): 7.8 ng/mL
Cmax ([5]; male, po, 2.5 mg, Cmax Mean, males, single oral dose 2.5 mg): 8.4 ng/mL
half-life ([5]; male, po, 2.5 mg, Distribution t1/2 Mean, males, single oral dose 2.5 mg): 0.221 days
half-life ([5]; male, po, 2.5 mg, Elimination t1/2 Mean, males, single oral dose 2.5 mg): 4.21 days
CL/F ([5]; male, po, 12.5 mg): 5.5 mL/min/kg
Tmax ([5]; male, po, 12.5 mg): 5 h
AUC(0-inf) ([5]; male, po, 12.5 mg, AUC0−∞ GMean (geometric mean), males, single oral dose 12.5 mg): 528 ng·h/mL
AUC(0-inf) ([5]; male, po, 12.5 mg, AUC0−∞ Mean, males, single oral dose 12.5 mg): 552 ng·h/mL
Cmax ([5]; male, po, 12.5 mg, Cmax GMean (geometric mean), males, single oral dose 12.5 mg): 19.2 ng/mL
Cmax ([5]; male, po, 12.5 mg, Cmax Mean, males, single oral dose 12.5 mg): 19.7 ng/mL
half-life ([5]; male, po, 12.5 mg, Distribution t1/2 Mean, males, single oral dose 12.5 mg): 0.321 days
half-life ([5]; male, po, 12.5 mg, Elimination t1/2 Mean, males, single oral dose 12.5 mg): 5.57 days
CL/F ([5]; male, po, 25 mg): 8 mL/min/kg
Tmax ([5]; male, po, 25 mg): 5 h
AUC(0-inf) ([5]; male, po, 25 mg, AUC0−∞ GMean (geometric mean), males, single oral dose 25 mg): 656 ng·h/mL
AUC(0-inf) ([5]; male, po, 25 mg, AUC0−∞ Mean, males, single oral dose 25 mg): 683 ng·h/mL
Cmax ([5]; male, po, 25 mg, Cmax GMean (geometric mean), males, single oral dose 25 mg): 23.9 ng/mL
Cmax ([5]; male, po, 25 mg, Cmax Mean, males, single oral dose 25 mg): 24.7 ng/mL
half-life ([5]; male, po, 25 mg, Distribution t1/2 Mean, males, single oral dose 25 mg): 0.362 days
half-life ([5]; male, po, 25 mg, Elimination t1/2 Mean, males, single oral dose 25 mg): 4.85 days
Vdβ/F Mean ([5]; males, single oral dose 2.5 mg): 25.4 L/kg
AUC0−∞/Dose Mean ([5]; males, single oral dose 2.5 mg): 6084.0
Cmax/Dose Mean ([5]; males, single oral dose 2.5 mg): 269.6
Vdβ/F Mean [5, 11]: 62.3 L/kg
AUC0−∞/Dose Mean [5, 11]: 3299.8
Cmax/Dose Mean [5, 11]: 117.4
Vdβ/F Mean ([5]; males, single oral dose 25 mg): 74.2 L/kg
AUC0−∞/Dose Mean ([5]; males, single oral dose 25 mg): 2273.8
Cmax/Dose Mean ([5]; males, single oral dose 25 mg): 82.0
Plaque Area Stenosis (%) (C. pneumoniae): 24.2%
headache ([6]; 30 mg single oral dose (3/5 subjects)): 38%
patients reporting AEs ([6]; 30 mg single oral dose (5/8)): Sixty-two
WBC count nadir values, one subject ([6]; 30 mg single oral dose, Days 3 and 7, baseline 4.3×10^3): 3.8×10^3 cells/mm^3
Vdβ/F ([7]; dogs, oral administration): 40 to 80 L/kg
bioavailability ([7]; plasma, po, beagle dog, 10 mg/kg): 16 to 17%
